The text below walks through data of patent publication US20210330616A1, “AMELIORATING AGENT FOR OBESITY-RELATED METABOLIC DISEASE” (METABOLIC AND OBESE RESEARCH SCIENCE CORPORATION, priority 2018, published 2021).

Data set [1] relates to obese mice fed high-fat diet. Briefly: Daily variation of body weight with oral administration to obese mice. Set-up: key to Body weight: ↓: lowering or mitigating action; ↑: increasing action; →: no change. Format: in vivo, mice (C57BL6J). On the procedure: (§1) Six-week-old male mice (C57BL6J) were grown with high-fat diet (fat content: 60 kcal %, Research diets, Inc.) or low-fat diet (fat content: 10.5 kcal %, CLEA Japan, Inc.) for 18 weeks. Thereafter, obese mice fed high-fat diet were separated into two groups, and 0.3 mL of physiological saline was orally administered to one group through a gastric tube for mouse, and 0.3 mL of a solution of a low-molecular-weight compound dissolved in physiological saline was orally administered to the other group through the gastric tube for mouse. Oral administration was performed every day over 14 days during 30 minutes before turning lights off at 18:00 (turning lights on at 6:00, 12-hour light-dark cycle, room temperature: 22° C.). […] Thereafter, the organs were stored at −80° C. Hepatic Leprb expression was measured by means of the qRT-PCR.
4. Daily Variation of Body Weight with Oral Administration of Low-Molecular-Weight Compound
The body weight of each mouse with administration of physiological saline or administration of a low-molecular-weight compound was measured every day before each administration at 18:00.

In data set [2] the test system is obese mice fed high-fat diet. Description: Insulin resistance and blood glucose level after oral administration to obese mice. More on the design: key to Insulin resistance / Hyperglycemia: ↓: lowering or mitigating action; ↑: increasing action; →: no change. Format: in vivo, mice (C57BL6J). Here is the method:
as §1
6. Change in Insulin Resistance and Blood Glucose Level after Oral Administration of Low-Molecular-Weight Compound
Fasting blood glucose and blood insulin concentration after administration of physiological saline or administration of a low-molecular-weight compound were measured respectively by using an enzyme-electrode method with glucose oxidase and a mouse insulin ELISA kit (Morinaga Institute of Biological Science, Inc.). The insulin resistance of each mouse was represented as Homeostatic model assessment of insulin resistance (HOMA-IR) [insulin (mU/L)×blood glucose (mM)÷22.5] index (×100) (Brit J Nutr 101: 701-708, 2009).

Data set [3] concerns obese mice fed high-fat diet. Description: Hepatic lipid content after oral administration to obese mice (LipoSEARCH, BODIPY staining). Format: in vivo, mice (C57BL6J). Set-up: key to Fatty liver: ↓: lowering or mitigating action; ↑: increasing action; →: no change. Here is the method: as §1
8. Change in Hepatic Lipid Content after Oral Administration of Low-Molecular-Weight Compound
Hepatic Tg and Chol contents after administration of physiological saline or administration of a low-molecular-weight compound were measured by using a LipoSEARCH method (Skylight Biotech, Inc.).
To visualize and quantify the amount of fat accumulated in hepatocyte per cell and change in shape of fat, fat globule fluorescent staining with BODIPY (excitation light: 493 nm; fluorescence: 503 nm) was performed. Staining-positive area and size of staining-positive cell were measured in 10 views per mouse hepatocyte in each group. ANOVA was used for intergroup significance test in FIGS. 8-D and 8-E (****. P<0.001).

The test system of data set [4] is obese mice fed high-fat diet. Description: Blood lipid concentration after oral administration to obese mice. Format: in vivo, mice (C57BL6J). More on the design: key to Blood LDLc / Blood HDLc: ↓: lowering or mitigating action; ↑: increasing action; →: no change. On the procedure:
as §1
10. Change in Blood Lipid Concentration after Oral Administration of Low-Molecular-Weight Compound
Fasting blood CM-Tg, VLDL-Tg, LDLc, and HDLc concentrations after administration of physiological saline or administration of a low-molecular-weight compound were measured by using the LipoSEARCH method.

For data set [5], the target named is α2-adrenaline receptor. As to conditions: cited from earlier work.
For data set [6] the following is noted: in vivo; cited from earlier work.
On the set-up of data set [7]: key to Body weight / Insulin resistance / Hyperglycemia / Hypertension / Blood LDLc / Blood HDLc / Fatty liver: ↓: lowering or mitigating action; ↑: increasing action; →: no change. The note with it: Table 1, *based on clinical data; cited from earlier work.
The mark [8] stands for this setting: Table 1, summary of obese mouse results.

Regarding `NC(N)=N/N=C/c1c(Cl)cccc1Cl` [guanabenz, 2-{[(2,6-dichlorophenyl)methylidene]amino}guanidine], in data set [1] (setting [8]), the Body weight result is recorded as “↓”. In addition, the anti-obesity action result in data set [1] (obese mouse results) is “exhibits anti-obesity action without reduction of appetite”. In data set [2] (setting [8]), the Hyperglycemia result is “↓” and the Insulin resistance entry was “↓”. Also, in data set [2] (obese mouse results), the “action on insulin resistance” value is “ameliorates insulin resistance” and the hyperglycemia-mitigating action entry was “exhibits hyperglycemia-mitigating action”. Besides, the Fatty liver entry in data set [3] (setting [8]) is given as “↓”. In addition, the anti-fatty liver action entry in data set [3] (obese mouse results) is recorded as “with anti-fatty liver action”. For the same compound, in data set [4] (setting [8]), the “Blood HDLc” value is listed as “→” and the “Blood LDLc” value is on record as “↓”. Moreover, the “action on high LDL cholesterol” value in data set [4] (obese mouse results) is “exhibits reducing action for high LDL cholesterol”. The Ki in data set [5] is 7 nM. Besides, in data set [6], the “absorptivity from a gastrointestinal tract” value is given as “approximately 75%”, the half-life in blood is 4.3 to 6.4 h and the site of metabolism result is “mostly metabolized in the liver”. Besides, the Hypertension entry in data set [7] is “↓*”.

The Ki is the equilibrium dissociation constant of an inhibitor or competing ligand from its target.
